The values that follow come from patent publication US20250388565A1, “ESTROGEN RECEPTOR ALPHA DEGRADERS AND METHODS OF USE THEREOF” (Relay Therapeutics, Inc., priority 2022, published 2025).

A word on the DC50: it is the midpoint of the concentration-degradation curve.

Some results are limits rather than exact numbers.

For the assay, the target named is T1, ERα protein (HiBiT-tagged) in ESR1_HiBiT KI MCF7 cells (Homo sapiens, UniProt P03372).
T1 sequence (P03372 1-595): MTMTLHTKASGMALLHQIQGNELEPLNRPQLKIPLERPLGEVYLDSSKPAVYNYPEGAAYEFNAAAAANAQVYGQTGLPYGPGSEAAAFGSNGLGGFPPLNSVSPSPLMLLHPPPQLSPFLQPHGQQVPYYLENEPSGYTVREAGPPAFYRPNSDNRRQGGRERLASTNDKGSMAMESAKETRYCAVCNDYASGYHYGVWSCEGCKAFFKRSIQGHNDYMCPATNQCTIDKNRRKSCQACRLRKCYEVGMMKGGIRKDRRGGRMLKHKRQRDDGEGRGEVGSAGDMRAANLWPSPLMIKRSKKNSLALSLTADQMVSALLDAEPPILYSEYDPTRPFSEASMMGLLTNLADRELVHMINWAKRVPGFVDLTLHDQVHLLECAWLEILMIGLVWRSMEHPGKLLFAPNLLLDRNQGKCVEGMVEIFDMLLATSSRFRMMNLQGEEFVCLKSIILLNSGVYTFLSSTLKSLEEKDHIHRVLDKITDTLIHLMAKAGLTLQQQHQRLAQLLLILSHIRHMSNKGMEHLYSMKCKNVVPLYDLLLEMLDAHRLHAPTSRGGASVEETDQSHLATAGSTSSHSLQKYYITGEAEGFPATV
In words: Nano Glo HiBiT Lytic Degradation Assay. It counts as cell-based. To be noted: 6 hours with compound, 14-point dose response 1:3, bell-shape curve fit, half-maximal effect of first Hill model, read-out: MCF7 ESR1 HiBiT - (DC50). Summed up:
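ESR1_HiBiT knock-in MCF7 cells were seeded 24 h before treatment, then exposed to compounds for 6 h at 37° C (14-point 1:3 curves, 10 mM top stock, 0.1% DMSO final, duplicates). HiBiT-ERα was read by lytic LgBiT luminescence, background-subtracted and normalized to DMSO. DC50 was taken from the half-maximal point of the first Hill component of a bell-shaped fit.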
A general note: HiBiT is a short tag that completes a luciferase, so light tracks the accessible tagged protein.

`O=C1CC[C@H](N2Cc3cc(N4CCN(CC5CCN(c6ccc([C@@H]7c8ccc(O)cc8CO[C@@H]7c7ccc(F)cc7)cc6)CC5)CC4)ccc3C2=O)C(=O)N1` [Compound I-35, (S)-3-(5-(4-((1-(4-((3S,4R)-3-(4-fluorophenyl)-7-hydroxyisochroman-4-yl)phenyl)piperidin-4-yl)methyl)piperazin-1-yl)-1-oxoisoindolin-2-yl)piperidine-2,6-dione]: the 50% degradation concentration (DC50) was found to be 0.3 nM. Then `O=C1CCC(c2ccc(N3CCN(CC4CCN(c5ccc([C@@H]6c7ccc(O)cc7CC[C@@H]6c6ccccc6)cc5)CC4)CC3)cc2)C(=O)N1` (stereo partly drawn) [Compound I-39, 3-[4-[4-[[1-[4-[(1R,2S)-6-hydroxy-2-phenyl-tetralin-1-yl]phenyl]-4-piperidyl]methyl]piperazin-1-yl]phenyl]piperidine-2,6-dione], with 469 nM; and `O=C1CC[C@H](N2Cc3cc(N4CCN(CC5CCN(c6ccc([C@@H]7c8ccc(B(O)O)cc8CC[C@@H]7c7ccccc7)cc6)CC5)CC4)ccc3C2=O)C(=O)N1` [Compound I-45, ((5R,6S)-5-(4-(4-((4-(2-((S)-2,6-dioxopiperidin-3-yl)-1-oxoisoindolin-5-yl)piperazin-1-yl)methyl)piperidin-1-yl)phenyl)-6-phenyl-5,6,7,8-tetrahydronaphthalen-2-yl)boronic acid], with 3 nM; and `O=C1CC[C@H](N2Cc3cc(N4CCN(CC5CCN(c6ccc([C@@H]7c8ccc(C(F)(F)F)cc8CC[C@@H]7c7ccccc7)cc6)CC5)CC4)ccc3C2=O)C(=O)N1` [Compound I-46, (S)-3-(1-oxo-5-(4-((1-(4-((1R,2S)-2-phenyl-6-(trifluoromethyl)-1,2,3,4-tetrahydronaphthalen-1-yl)phenyl)piperidin-4-yl)methyl)piperazin-1-yl)isoindolin-2-yl)piperidine-2,6-dione], with at least 10000 nM. To `O=C1CC[C@H](N2Cc3cc(N4CCN(CC5CCN(c6ccc([C@@H]7c8ccccc8CC[C@@H]7c7ccccc7)cc6)CC5)CC4)ccc3C2=O)C(=O)N1` [Compound I-47, (S)-3-(1-oxo-5-(4-((1-(4-((1R,2S)-2-phenyl-1,2,3,4-tetrahydronaphthalen-1-yl)phenyl)piperidin-4-yl)methyl)piperazin-1-yl)isoindolin-2-yl)piperidine-2,6-dione] belongs 79 nM; to `N#Cc1ccc2c(c1)CC[C@H](c1ccccc1)[C@@H]2c1ccc(N2CCC(CN3CCN(c4ccc5c(c4)CN([C@H]4CCC(=O)NC4=O)C5=O)CC3)CC2)cc1` [Compound I-49, (5R,6S)-5-(4-(4-((4-(2-((S)-2,6-dioxopiperidin-3-yl)-1-oxoisoindolin-5-yl)piperazin-1-yl)methyl)piperidin-1-yl)phenyl)-6-phenyl-5,6,7,8-tetrahydronaphthalene-2-carbonitrile], at least 10000 nM; to `Cc1ccc2c(c1)CC[C@H](c1ccccc1)[C@@H]2c1ccc(N2CCC(CN3CCN(c4ccc5c(c4)CN([C@H]4CCC(=O)NC4=O)C5=O)CC3)CC2)cc1` [Compound I-50, (S)-3-(5-(4-((1-(4-((1R,2S)-6-methyl-2-phenyl-1,2,3,4-tetrahydronaphthalen-1-yl)phenyl)piperidin-4-yl)methyl)piperazin-1-yl)-1-oxoisoindolin-2-yl)piperidine-2,6-dione], at least 10000 nM. For the compound `O=C1CC[C@H](N2Cc3cc(N4CCN(CC5CCN(c6ccc([C@@H]7c8ccc(O)cc8C(F)(F)C[C@@H]7c7ccccc7)cc6)CC5)CC4)ccc3C2=O)C(=O)N1` [Compound I-51, (S)-3-(5-(4-((1-(4-((1R,2S)-4,4-difluoro-6-hydroxy-2-phenyl-1,2,3,4-tetrahydronaphthalen-1-yl)phenyl)piperidin-4-yl)methyl)piperazin-1-yl)-1-oxoisoindolin-2-yl)piperidine-2,6-dione], the DC50 was found to be 0.45 nM. To `O=C1CC[C@H](N2Cc3cc(N4CCN(CC5CCN(c6ccc([C@@H]7c8ccc(O)cc8CO[C@@]78CCCc7ccccc78)cc6)CC5)CC4)ccc3C2=O)C(=O)N1` [Compound I-76, (S)-3-(5-(4-((1-(4-((3S,4R)-7-hydroxy-3′,4′-dihydro-2′H-spiro[isochromane-3,1′-naphthalen]-4-yl)phenyl)piperidin-4-yl)methyl)piperazin-1-yl)-1-oxoisoindolin-2-yl)piperidine-2,6-dione] belongs 0.21 nM; to `O=C1CC[C@H](N2Cc3cc(N4CCN(CC5CCN(c6ccc([C@@H]7c8ccc(O)cc8CO[C@@]78CCc7ccccc78)cc6)CC5)CC4)ccc3C2=O)C(=O)N1` [Compound I-77, (S)-3-(5-(4-((1-(4-((1S,4′R)-7′-hydroxy-2,3-dihydrospiro[indene-1,3′-isochroman]-4′-yl)phenyl)piperidin-4-yl)methyl)piperazin-1-yl)-1-oxoisoindolin-2-yl)piperidine-2,6-dione], 0.2 nM; to `C[C@@H]1OC2(CCCCC2)[C@H](c2ccc(N3CCC(CN4CCN(c5ccc6c(c5)CN([C@H]5CCC(=O)NC5=O)C6=O)CC4)CC3)cc2)c2ccc(O)cc21` [Compound I-83, (S)-3-(5-(4-((1-(4-((1′S,4′R)-7′-hydroxy-1′-methylspiro[cyclohexane-1,3′-isochroman]-4′-yl)phenyl)piperidin-4-yl)methyl)piperazin-1-yl)-1-oxoisoindolin-2-yl)piperidine-2,6-dione], 1 nM. Then `O=C1CC[C@H](N2Cc3cc(N4CCN(CC5CCN(c6ccc([C@@H]7c8ccc(O)cc8CCC78CCCCC8)cc6)CC5)CC4)ccc3C2=O)C(=O)N1` [Compound I-85, (S)-3-(5-(4-((1-(4-((R)-6′-hydroxy-3′,4′-dihydro-1′H-spiro[cyclohexane-1,2′-naphthalen]-1′-yl)phenyl)piperidin-4-yl)methyl)piperazin-1-yl)-1-oxoisoindolin-2-yl)piperidine-2,6-dione], with 0.64 nM. Consider `O=C1CC[C@H](N2Cc3cc(N4CCN(CC5CCN(c6ccc([C@H]7c8ccc(O)cc8C(F)(F)C[C@H]7C7CCCCC7)cc6)CC5)CC4)ccc3C2=O)C(=O)N1` [Compound I-98, (S)-3-(5-(4-((1-(4-((1S,2S)-2-cyclohexyl-4,4-difluoro-6-hydroxy-1,2,3,4-tetrahydronaphthalen-1-yl)phenyl)piperidin-4-yl)methyl)piperazin-1-yl)-1-oxoisoindolin-2-yl)piperidine-2,6-dione], for which the DC50 is at least 10000 nM. To `O=C1CC[C@H](N2Cc3cc(N4CCN(CC5CCN(c6ccc([C@@H]7c8ccc(O)cc8C(F)(F)C[C@@H]7C7CCCCC7)cc6)CC5)CC4)ccc3C2=O)C(=O)N1` [Compound I-99, (S)-3-(5-(4-((1-(4-((1R,2R)-2-cyclohexyl-4,4-difluoro-6-hydroxy-1,2,3,4-tetrahydronaphthalen-1-yl)phenyl)piperidin-4-yl)methyl)piperazin-1-yl)-1-oxoisoindolin-2-yl)piperidine-2,6-dione] belongs 0.67 nM; to `O=C1CC[C@H](N2Cc3cc(N4CCN(CC5CCN(c6ccc([C@H]7c8ccc(O)cc8CC[C@H]7c7ccccn7)cc6)CC5)CC4)ccc3C2=O)C(=O)N1` [Compound I-114, (3S)-3-[5-[4-[[1-[4-[(1S,2R)-6-hydroxy-2-(2-pyridyl)tetralin-1-yl]phenyl]-4-piperidyl]methyl]piperazin-1-yl]-1-oxo-isoindolin-2-yl]piperidine-2,6-dione], at least 10000 nM. To `O=C1CC[C@H](N2Cc3cc(N4CCN(CC5CCN(c6ccc([C@@H]7c8ccc(O)cc8CC[C@@H]7c7ccccn7)cc6)CC5)CC4)ccc3C2=O)C(=O)N1` [Compound I-115] belongs 0.63 nM.

For `CC1(C)CC([C@H]2CCc3cc(O)ccc3[C@H]2c2ccc(N3CCC(CN4CCN(c5ccc6c(c5)CN([C@H]5CCC(=O)NC5=O)C6=O)CC4)CC3)cc2)CC(C)(C)C1` [Compound I-116, (3.5)-3-[5-[4-[[1-[4-[(1S,2S)-6-hydroxy-2-(3,3,5,5-tetramethylcyclohexyl)tetralin-1-yl]phenyl]-4-piperidyl]methyl]piperazin-1-yl]-1-oxo-isoindolin-2-yl]piperidine-2,6-dione], the DC50 was at least 10000 nM. Consider `CC1(C)CC([C@@H]2CCc3cc(O)ccc3[C@@H]2c2ccc(N3CCC(CN4CCN(c5ccc6c(c5)CN([C@H]5CCC(=O)NC5=O)C6=O)CC4)CC3)cc2)CC(C)(C)C1` [Compound I-117, (35)-3-[5-[4-[[1-[4-[(1R,2R)-6-hydroxy-2-(3,3,5,5-tetramethylcyclohexyl)tetralin-1-yl]phenyl]-4-piperidyl]methyl]piperazin-1-yl]-1-oxo-isoindolin-2-yl]piperidine-2,6-dione], for which the DC50 is at least 10000 nM.

Take `O=C1CC[C@H](N2Cc3cc(N4CCN(CC5CCN(c6cc(F)c([C@H]7c8ccc(O)cc8CC[C@H]7C7CCCCC7)c(F)c6)CC5)CC4)ccc3C2=O)C(=O)N1` [Compound I-118, (S)-3-(5-(4-((1-(4-((1R,2S)-2-cyclohexyl-6-hydroxy-1,2,3,4-tetrahydronaphthalen-1-yl)-3,5-difluorophenyl)piperidin-4-yl)methyl)piperazin-1-yl)-1-oxoisoindolin-2-yl)piperidine-2,6-dione]: the DC50 was found to be 600 nM.
